Patent publication US12023317B2, “Composition for ameliorating psoriasis comprising cimicifugolide a as active ingredient” (KOREA INSTITUTE OF SCIENCE AND TECHNOLOGY, priority 2021, dated 2024)

Tested on: psoriasis
Test: psoriasis-induced group: skin moisture, damaged area, skin morphology, inflammation
Assay type: in vivo
Details: when cimicifugolide A is administered

SMILES: CC(C)=CC1OC(=O)/C(=C\CO)C1O (stereo not shown) [cimicifugolide A, (Z)-4-Hydroxy-3-(2-hydroxyethylidene)-5-(2-methylprop-1-en-1-yl)dihydrofuran-2(3H)-one]
- inflammation expression: inhibition
- moisture content: increased
- moisture loss: decreased
- skin morphological changes: inhibition
